Earlier results as cited in patent US12090029B2, “Devices and methods for enhancing immunogenicity to intradermal vaccination” (VERSITECH LIMITED, priority 2016, dated 2024).

Key:
influenza vaccination = details: elderly subjects
influenza vaccine = details: mouse model, imiquimod cream applied (Zhang et al., 2014)
[1] = system: vaccine influenza strains; details: young healthy individuals, topical application before intradermal trivalent influenza vaccine (Hung et al., 2016)

## CC(C)Cn1cnc2c(N)nc3ccccc3c21 [imiquimod]
Influenza vaccination; relative to a vaccine-only group
  hospitalizations for influenza or pneumonia: fewer
Influenza vaccination; sustained to 1 year, relative to a vaccine-only group
  seroconversion rate: earlier and better
Influenza vaccination; topical pre-treatment, relative to a vaccine-only group (Hung et al., 2014)
  immunogenicity of influenza vaccination: significantly expedited, augmented, and prolonged
Influenza vaccine
  immunogenicity of influenza vaccine: enhanced
[1]
  immunogenicity against the non-vaccine strains: increased
  immunogenicity against the vaccine influenza strains: significantly improved
